The values below come from patent US20230149507A1, “TREATMENT OF ALT CANCERS” (INSTITUTO DE MEDICINA MOLECULAR JOÃO LOBO ANTUNES, priority 2019, published 2023).

The subject of assay [1] is U-2 OS cells. Description: C-circle assay in cells overexpressing FANCM variants. The format is cell-based, human. The following applies: stable overexpression, compared to vector control. From the text:
(a) Schematic of FANCM domain interactions, mutations or deletions. For clarity, domains have been color coded by functional role (bottom panel). (b) Quantitation of metaphase-TIFs in U-2 OS cells stably overexpressing wild-type (FANCM+) or FANCM mutants. Scatterplot bars represent the mean±SEM. Out of 3 experiments, n≥110 metaphases scored for each mutant, *p<0.05, **p<0.005, Mann-Whitney test. (c) Quantitation of fragile telomeres in U-2 OS cells stably overexpressing wild-type (FANCM+) or FANCM mutants. Scatterplot bars represent the mean±SEM. Out of 3 experiments, n>100 metaphases scored for each mutant, *p<0.05, **p<0.005, Mann-Whitney test. (d) Representative dot blots and quantitation of C-circle assays in U-2 OS cells stably overexpressing wild-type (FANCM+) or FANCM domain mutants. C-circles were normalized to the mean of vector control. Error bars represent mean±SEM from n=3 experiments, *p<0.05, **p<0.005, Student's t-test. (e) Single molecule analysis of telomeric extension events (top panel) and length of extension events (bottom panel) in U-2 OS cells stably overexpressing wild-type (FANCM+) or FANCM domain mutants. Error bars represent mean±SEM of n≥350 fibers out of 3 experiments, *p<0.05, **p<0.005, Student's t-test.
(§1) FIG. 23. Defects in ALT phenotype suppression are exacerbated by overexpression of a double-mutant (DM) FANCM, in which both the MM2 domain (FF>AA) and the translocase domain (K117R) of FANCM are mutated. (a) Representative dot blots and quantitation of C-circle assays in U-2 OS cells stably overexpressing wild-type (WT) or FANCM domain mutants (K117R, FF>AA; DM). C-circles were normalized to the mean of empty vector control (EV). Error bars represent mean±SEM from n=3 experiments, *p<0.05, **p<0.005, Student's t-test. (b) Quantitation of APB frequency in U-2 OS cells overexpressing wild-type (WT) or FANCM mutants. Scatterplot bars represent the mean±SEM. Out of three experiments, n=150 cells were scored for each mutant, **p<0.005, Mann-Whitney test. (c) Quantitation of metaphase-TIFs in U-2 OS cells stably overexpressing wild-type (WT) or FANCM mutants. Scatterplot bars represent the mean±SEM. Out of three experiments, n=120 metaphases scored for each mutant, *p<0.05, **p<0.005, Mann-Whitney test. All statistical comparisons are relative to EV control.
(§2) Empty vector and wild-type FANCM (pCMV6-Myc-DDK) constructs were obtained from Origene Technologies. Wild type FANCM (SEQ ID NO: 2) and FANCM mutants (SEQ ID NOs: 19 to 28) were cloned into the pLenti-C-Myc-DDK-IRES-Neo backbone (Origene Technologies) by restriction enzyme subcloning of gene blocks synthesized by Integrated DNA Technologies (IDT). Lentivirus was produced by the Vector and Genome Engineering Facility (Children's Medical Research Institute). For stable overexpression, cells were transduced with lentivirus, allowed to recover for 24 h, and subject to G418 selection. Cells were maintained in G418 to ensure sustained overexpression.
C-circles were amplified with Phi29 polymerase using dATP, dTTP and dGTP overnight. Products were dot blotted onto Biodyne B membranes (Pall) and pre-hybridised in PerfectHyb Plus (Sigma) for at least 30 min. Radiolabeled telomeric C-probe was then added and blots were hybridized overnight at 37° C. (Henson et al., 2009). Blots were washed with 0.5×SSC, 0.1% SDS three times for 5 min each then exposed to phosphor screen. Imaging was performed on the Typhoon FLA 7000 system (GE Healthcare) with a PMT of 750 V.

In assay [2] the test system is U-2 OS cells. Description: APB frequency and APB telomere intensity in cells overexpressing FANCM variants. In kind it is cell-based, human. The following applies: overexpression.
Text: (a) Western immunoblotting of stable wild-type FANCM (FANCM+) or FANCM mutant overexpression in U-2 OS cells. […] (b) TRF analysis of U-2 OS cells overexpressing wild-type (FANCM+) or FANCM mutants. Gels were hybridized under native and denatured conditions with radiolabelled telomeric probes to detect the C-strand and G-strand. (c) Tukey boxplots of APB frequency (top panel) and mean APB telomere intensity (bottom panel) in U-2 OS cells overexpressing wild-type (FANCM+) or FANCM mutants. Out of 3 experiments, n=150 cells scored per variant, *p<0.05, **p<0.005, Mann-Whitney test.
as §1, §2
Indirect IF and telomere FISH were performed on both interphase nuclei and metaphase spreads. For interphase IF experiments, cells were grown on coverslips or LabTek chamber slides (Thermo Scientific). Slides were prepared as described in Sobinoff et al., 2017. Cells on coverslips were washed twice with PBS, permeabilized with KCM buffer (120 mM KCl, 20 mM NaCl, 10 mM Tris pH 7.5, 0.1% Triton), washed again with PBST and PBS, then fixed with ice-cold 4% formaldehyde PBS solution at room temperature for 10 min. Coverslips were blocked with antibody-dilution buffer (20 mM Tris-HCl, pH 7.5, 2% (w/v) BSA, 0.2% (v/v) fish gelatin, 150 mM NaCl, 0.1% (v/v) Triton X-100 and 0.1% (w/v) sodium azide) and 0.1 mg/ml RNaseA for 30 min at 37° C. Cells were incubated with primary antibodies (Supplementary Table 1) for 1 h at 37° C. or 2 h at room temperature, then incubated with 1:1,000 dilution of appropriate Alexa Fluor conjugated secondary antibodies (Thermo Scientific). Coverslips were rinsed with PBS then fixed with 4% (v/v) formaldehyde at room temperature prior to telomere FISH. Coverslips were subjected to a graded ethanol series (75% for 2 min, 85% for 2 min, and 100% for 2 min) and allowed to air-dry. […]

On to “K117R: FANCM mutant (SEQ ID NO: 20) substituted at K117R, DEAH domain disrupted”, for which, in the assay on U-2 OS cells [1], the C-circle levels result is on record as “did not cause a change in C-circle levels”. Further, in the assay with U-2 OS cells [2], the “intensity of telomeric signal within APBs” value is reported as “significant increase” and the “number of APBs” value is listed as “significant increase”.
Take “FF>AA: FANCM mutant (SEQ ID NO: 25), double substitution F1232A/F1236A within the MM2 domain”: the C-circle levels entry with U-2 OS cells [1] is recorded as “approximate two-fold increase in C-circles”. Also, in the assay on U-2 OS cells [2], the “intensity of telomeric signal within APBs” value is listed as “significant increase” and the “number of APBs” value is “significant increase”.
